As a reminder, the IC50 is the concentration at which inhibition is half-maximal.

This experiment relates to YAP-TEAD interaction. The experiment can be described thus: SK-HEP-1 reporter assay (8xTEAD responsive elements driving NanoLuc luciferase). The experiment is classed as cell-based. Conditions: Homo sapiens, SK-HEP1, SK-HEP-1 reporter assay. Summed up:
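Luminescence after NanoGlo addition gave reporter activity, and IC50 values came from duplicate 10-point curves (top final concentration 30 μM, 0.3% DMSO). The cells were SK-HEP-1 with a stably integrated 8×TEAD-driven NanoLuc gene, exposed to compound for 24 h at 37 °C.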
(In general: In a reporter assay the amount or activity of a reporter protein is the signal.)
Regarding `Cn1cc2c3cc(C(=O)NC4(c5cncn5C)CC4)ccc3n(-c3ccc(C(F)(F)F)cc3)c2n1` [Example B70, 2-methyl-N-[1-(1-methyl-1H-imidazol-5-yl)cyclopropyl]-8-[4-(trifluoromethyl)phenyl]-2H,8H-pyrazolo[3,4-b]indole-5-carboxamide], the IC50 fell in the range of 100 to 10000 nM.

In turn, `CCC(NC(=O)c1ccc2c(c1)c1cn(C)nc1n2-c1ccc(C(F)(F)F)cc1)c1c(C)noc1C` (stereo not shown) [Example B71, N-[1-(3,5-dimethyl-1,2-oxazol-4-yl)propyl]-2-methyl-8-[4-(trifluoromethyl)phenyl]-2H,8H-pyrazolo[3,4-b]indole-5-carboxamide] had a 50% inhibitory concentration (IC50) of 10 to 100 nM.

With `CC1COC(CO)CN1C(=O)c1ccc2c(c1)c1cn(C)nc1n2-c1ccc(C(F)(F)F)cc1` (stereo not shown) [Example B72, (5-methyl-4-{2-methyl-8-[4-(trifluoromethyl)phenyl]-2H,8H-pyrazolo[3,4-b]indole-5-carbonyl}morpholin-2-yl)methanol], the half-inhibitory concentration (IC50) was 100 to 10000 nM.

`Cn1cc2c3cc(C(=O)NC45CC4COC5(C)C)ccc3n(-c3ccc(C(F)(F)F)cc3)c2n1` (stereo not shown) [Example B73, N-(2,2-dimethyl-3-oxabicyclo[3.1.0]hexan-1-yl}-2-methyl-8-[4-(trifluoromethyl)phenyl]-2H,8H-pyrazolo[3,4-b]indole-5-carboxamide] showed an IC50 of 100 to 10000 nM.

Consider `Cn1cc2c3cc(C(=O)N4CCC(O)(c5c[nH]nn5)C4)ccc3n(-c3ccc(C(F)(F)F)cc3)c2n1` (stereo not shown) [Example B74, 1-(2-methyl-8-[4-(trifluoromethyl)phenyl]-2H,8H-pyrazolo[3,4-b]indole-5-carbonyl}-3-(1H-1,2,3-triazol-4-yl)pyrrolidin-3-ol], for which the IC50 lay within 100 to 10000 nM.

On to `Cn1cc2c3cc(C(=O)NCC4CC45CCOC5)ccc3n(-c3ccc(C(F)(F)F)cc3)c2n1` (stereo not shown) [Example B75, 2-methyl-N-({5-oxaspiro[2.4]heptan-1-yl}methyl)-8-[4-(trifluoromethyl)phenyl]-2H,8H-pyrazolo[3,4-b]indole-5-carboxamide], for which the IC50 was in the range of 100 to 10000 nM.

The compound `Cn1cc2c3cc(C(=O)NC4CCCn5nccc54)ccc3n(-c3ccc(C(F)(F)F)cc3)c2n1` (stereo not shown) [Example B76, 2-methyl-N-(4H,5H,6H,7H-pyrazolo[1,5-a]pyridin-4-yl}-8-[4-(trifluoromethyl)phenyl]-2H,8H-pyrazolo[3,4-b]indole-5-carboxamide] showed an IC50 of 10 to 100 nM.

The compound `Cc1noc(CC2(NC(=O)c3ccc4c(c3)c3cn(C)nc3n4-c3ccc(C(F)(F)F)cc3)CC2)n1` [Example B77, 2-methyl-N-{1-[(3-methyl-1,2,4-oxadiazol-5-yl)methyl]cyclopropyl}-8-[4-(trifluoromethyl)phenyl]-2H,8H-pyrazolo[3,4-b]indole-5-carboxamide] had an IC50 of more than 10000 nM.

For the compound `CC1CN(CCNC(=O)c2ccc3c(c2)c2cn(C)nc2n3-c2ccc(C(F)(F)F)cc2)CCO1` (stereo not shown) [Example B78, 2-methyl-N-[2-(2-methylmorpholin-4-yl)ethyl]-8-[4-(trifluoromethyl)phenyl]-2H,8H-pyrazolo[3,4-b]indole-5-carboxamide], the IC50 lay in the range of 100 to 10000 nM.

In turn, `CC(CCc1ccccn1)NC(=O)c1ccc2c(c1)c1cn(C)nc1n2-c1ccc(C(F)(F)F)cc1` (stereo not shown) [Example B79, 2-methyl-N-[4-(pyridin-2-yl)butan-2-yl]-8-[4-(trifluoromethyl)phenyl]-2H,8H-pyrazolo[3,4-b]indole-5-carboxamide] yielded a half-inhibitory concentration (IC50) of 100 to 10000 nM.

Take `Cn1cc2c3cc(C(=O)NC4(Cc5nc[nH]n5)CC4)ccc3n(-c3ccc(C(F)(F)F)cc3)c2n1` [Example B80, 2-methyl-N-{1-[(1H-1,2,4-triazol-3-yl)methyl]cyclopropyl}-8-[4-(trifluoromethyl)phenyl]-2H,8H-pyrazolo[3,4-b]indole-5-carboxamide]: the IC50 was in the range of 10 to 100 nM.

In turn, `Cn1cc2c3cc(C(=O)NC4(C5CCCO5)CCC4)ccc3n(-c3ccc(C(F)(F)F)cc3)c2n1` (stereo not shown) [Example B81, 2-methyl-N-[1-(oxolan-2-yl)cyclobutyl]-8-[4-(trifluoromethyl)phenyl]-2H,8H-pyrazolo[3,4-b]indole-5-carboxamide] yielded a half-maximal inhibitory concentration (IC50) of 100 to 10000 nM.

With `Cn1cc2c3cc(C(=O)NCc4cncn4CCF)ccc3n(-c3ccc(C(F)(F)F)cc3)c2n1` [Example B82, N-{[1-(2-fluoroethyl)-1H-imidazol-5-yl]methyl}-2-methyl-8-[4-(trifluoromethyl)phenyl]-2H,8H-pyrazolo[3,4-b]indole-5-carboxamide], the IC50 lay in the range of 100 to 10000 nM.

For the compound `COc1cc(C(C)NC(=O)c2ccc3c(c2)c2cn(C)nc2n3-c2ccc(C(F)(F)F)cc2)sn1` (stereo not shown) [Example B83, N-[1-(3-methoxy-1,2-thiazol-5-yl)ethyl]-2-methyl-8-[4-(trifluoromethyl)phenyl]-2H,8H-pyrazolo[3,4-b]indole-5-carboxamide], the IC50 lay within 100 to 10000 nM.

`Cn1cc2c3cc(C(=O)NCCc4cccc(F)n4)ccc3n(-c3ccc(C(F)(F)F)cc3)c2n1` [Example B84, N-[2-(6-fluoropyridin-2-yl)ethyl]-2-methyl-8-[4-(trifluoromethyl)phenyl]-2H,8H-pyrazolo[3,4-b]indole-5-carboxamide] returned an IC50 of more than 10000 nM.

Compound `Cc1oc(C2CC2)nc1CNC(=O)c1ccc2c(c1)c1cn(C)nc1n2-c1ccc(C(F)(F)F)cc1` [Example B85, N-[(2-cyclopropyl-5-methyl-1,3-oxazol-4-yl)methyl]-2-methyl-8-[4-(trifluoromethyl)phenyl]-2H,8H-pyrazolo[3,4-b]indole-5-carboxamide] yielded an IC50 of 1 to 10 nM.

As for `COCc1noc(C(C)NC(=O)c2ccc3c(c2)c2cn(C)nc2n3-c2ccc(C(F)(F)F)cc2)n1` (stereo not shown) [Example B86, N-{1-[3-(methoxymethyl)-1,2,4-oxadiazol-5-yl]ethyl}-2-methyl-8-[4-(trifluoromethyl)phenyl]-2H,8H-pyrazolo[3,4-b]indole-5-carboxamide], the IC50 was in the range of 100 to 10000 nM.

Take `Cn1cc2c3cc(C(=O)NC4C5CCOC5C4(C)C)ccc3n(-c3ccc(C(F)(F)F)cc3)c2n1` (stereo not shown) [Example B87, N-(7,7-dimethyl-2-oxabicyclo[3.2.0]heptan-6-yl}-2-methyl-8-[4-(trifluoromethyl)phenyl]-2H,8H-pyrazolo[3,4-b]indole-5-carboxamide]: the IC50 fell in the range of 100 to 10000 nM.

For the compound `CN(Cc1conc1C1CC1)C(=O)c1ccc2c(c1)c1cn(C)nc1n2-c1ccc(C(F)(F)F)cc1` [Example B88, N-[(3-cyclopropyl-1,2-oxazol-4-yl)methyl]-N,2-dimethyl-8-[4-(trifluoromethyl)phenyl]-2H,8H-pyrazolo[3,4-b]indole-5-carboxamide], the IC50 is more than 10000 nM.

In the case of `COCC1(C)CCCN1C(=O)c1ccc2c(c1)c1cn(C)nc1n2-c1ccc(C(F)(F)F)cc1` (stereo not shown) [Example B89, 2-(methoxymethyl)-2-methyl-1-{2-methyl-8-[4-(trifluoromethyl)phenyl]-2H,8H-pyrazolo[3,4-b]indole-5-carbonyl}pyrrolidine], the half-inhibitory concentration (IC50) was in the range of 100 to 10000 nM.

The compound `CC(CCn1cncn1)NC(=O)c1ccc2c(c1)c1cn(C)nc1n2-c1ccc(C(F)(F)F)cc1` (stereo not shown) [Example B90, 2-methyl-N-[4-(1H-1,2,4-triazol-1-yl)butan-2-yl]-8-[4-(trifluoromethyl)phenyl]-2H,8H-pyrazolo[3,4-b]indole-5-carboxamide] displayed a 50% inhibitory concentration (IC50) of 10 to 100 nM.

In turn, `Cn1cc2c3cc(C(=O)NC(CF)c4cnnn4C)ccc3n(-c3ccc(C(F)(F)F)cc3)c2n1` (stereo not shown) [Example B91, N-[2-fluoro-1-(1-methyl-1H-1,2,3-triazol-5-yl)ethyl]-2-methyl-8-[4-(trifluoromethyl)phenyl]-2H,8H-pyrazolo[3,4-b]indole-5-carboxamide] gave an IC50 of 10 to 100 nM.

For `CC(CNC(=O)c1ccc2c(c1)c1cn(C)nc1n2-c1ccc(C(F)(F)F)cc1)c1ccc(F)cn1` (stereo not shown) [Example B92, N-[2-(5-fluoropyridin-2-yl)propyl]-2-methyl-8-[4-(trifluoromethyl)phenyl]-2H,8H-pyrazolo[3,4-b]indole-5-carboxamide], the half-maximal inhibitory concentration (IC50) is 100 to 10000 nM.

Consider `COc1nn(C)cc1CNC(=O)c1ccc2c(c1)c1cn(C)nc1n2-c1ccc(C(F)(F)F)cc1` [Example B93, N-[(3-methoxy-1-methyl-1H-pyrazol-4-yl)methyl]-2-methyl-8-[4-(trifluoromethyl)phenyl]-2H,8H-pyrazolo[3,4-b]indole-5-carboxamide], for which the half-maximal inhibitory concentration (IC50) was in the range of 10 to 100 nM.

Regarding `Cn1cc2c3cc(C(=O)NCCc4cc(C5CC5)on4)ccc3n(-c3ccc(C(F)(F)F)cc3)c2n1` [Example B95, N-[2-(5-cyclopropyl-1,2-oxazol-3-yl)ethyl]-2-methyl-8-[4-(trifluoromethyl)phenyl]-2H,8H-pyrazolo[3,4-b]indole-5-carboxamide], the half-maximal inhibitory concentration (IC50) is 100 to 10000 nM.

Compound `CCn1nnc(C)c1CNC(=O)c1ccc2c(c1)c1cn(C)nc1n2-c1ccc(C(F)(F)F)cc1` [Example B96, N-[(1-ethyl-4-methyl-1H-1,2,3-triazol-5-yl)methyl]-2-methyl-8-[4-(trifluoromethyl)phenyl]-2H,8H-pyrazolo[3,4-b]indole-5-carboxamide] came in with an IC50 of 100 to 10000 nM.

The compound `Cn1cc2c3cc(C(=O)NCCn4cnnc4C4CC4)ccc3n(-c3ccc(C(F)(F)F)cc3)c2n1` [Example B98, N-[2-(3-cyclopropyl-4H-1,2,4-triazol-4-yl)ethyl]-2-methyl-8-[4-(trifluoromethyl)phenyl]-2H,8H-pyrazolo[3,4-b]indole-5-carboxamide] displayed a 50% inhibitory concentration (IC50) of 100 to 10000 nM.

`CCOC1CC(N(C)C(=O)c2ccc3c(c2)c2cn(C)nc2n3-c2ccc(C(F)(F)F)cc2)C1(C)C` (stereo not shown) [Example B99, N-(3-ethoxy-2,2-dimethylcyclobutyl)-N,2-dimethyl-8-[4-(trifluoromethyl)phenyl]-2H,8H-pyrazolo[3,4-b]indole-5-carboxamide]: the 50% inhibitory concentration (IC50) is more than 10000 nM.

The values are drawn from patent US20230174538A1, “Tricyclic heterocycles” (Merck Patent GmbH, priority 2020, published 2023).
